Among the data in patent publication US20230286970A1, “NOVEL OXADIAZOLE-BASED SELECTIVE HDAC6 INHIBITORS” (ITALFARMACO S.P.A., priority 2020, published 2023) are IC50 values, retold here.

Structures are written as SMILES.

What is called IC50 is the midpoint of a concentration-inhibition curve.

One assay concerns the target recombinant human HDAC6 (Homo sapiens (Human), UniProt Q9UBN7). The assay is described as follows: Enzymatic screening, HDAC6 inhibition (fluorogenic FdL_G substrate). Type of assay: biochemical. Summed up:
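Enzyme was preincubated with compound (8 doses, triplicate, 1% DMSO) in 25 mM Tris-HCl pH 8, 130 mM NaCl, 0.05% Tween-20, 10% glycerol, with BSA. A FLUOR DE LYS-Green substrate was then added, and fluorescence was read after developer plus 2 μM TSA.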

The target of another assay is recombinant human HDAC1 (Homo sapiens (Human), UniProt Q13547). Put plainly: Enzymatic screening, HDAC1 inhibition (fluorogenic FdL_G substrate). Type of assay: biochemical. Summed up:
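Recombinant human HDAC1 inhibition was measured fluorometrically using the FLUOR DE LYS-Green (FdL_G) substrate. Compounds at 8 doses (1% DMSO final) in Tris-HCl pH 8 buffer with NaCl, Tween-20 and glycerol were preincubated in triplicate with enzyme and 1 mg/mL BSA, then given substrate. Developer I plus 2 μM TSA was added, and fluorescence read after 25 minutes in the dark.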

recombinant human HDAC1, sequence (Q13547 whole entry): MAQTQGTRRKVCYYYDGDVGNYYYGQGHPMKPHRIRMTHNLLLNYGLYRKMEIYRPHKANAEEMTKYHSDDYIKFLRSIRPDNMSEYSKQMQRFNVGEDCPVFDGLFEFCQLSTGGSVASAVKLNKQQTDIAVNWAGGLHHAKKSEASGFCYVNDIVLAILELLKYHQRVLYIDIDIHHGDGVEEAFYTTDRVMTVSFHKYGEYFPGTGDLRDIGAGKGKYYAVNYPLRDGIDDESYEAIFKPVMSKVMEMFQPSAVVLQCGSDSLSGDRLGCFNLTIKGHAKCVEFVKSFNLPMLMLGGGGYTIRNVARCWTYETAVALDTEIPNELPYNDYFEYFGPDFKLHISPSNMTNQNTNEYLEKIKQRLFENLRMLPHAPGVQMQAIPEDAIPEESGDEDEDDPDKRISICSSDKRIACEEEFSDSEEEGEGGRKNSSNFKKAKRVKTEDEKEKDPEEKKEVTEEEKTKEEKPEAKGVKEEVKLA
recombinant human HDAC6, sequence (Q9UBN7 whole entry): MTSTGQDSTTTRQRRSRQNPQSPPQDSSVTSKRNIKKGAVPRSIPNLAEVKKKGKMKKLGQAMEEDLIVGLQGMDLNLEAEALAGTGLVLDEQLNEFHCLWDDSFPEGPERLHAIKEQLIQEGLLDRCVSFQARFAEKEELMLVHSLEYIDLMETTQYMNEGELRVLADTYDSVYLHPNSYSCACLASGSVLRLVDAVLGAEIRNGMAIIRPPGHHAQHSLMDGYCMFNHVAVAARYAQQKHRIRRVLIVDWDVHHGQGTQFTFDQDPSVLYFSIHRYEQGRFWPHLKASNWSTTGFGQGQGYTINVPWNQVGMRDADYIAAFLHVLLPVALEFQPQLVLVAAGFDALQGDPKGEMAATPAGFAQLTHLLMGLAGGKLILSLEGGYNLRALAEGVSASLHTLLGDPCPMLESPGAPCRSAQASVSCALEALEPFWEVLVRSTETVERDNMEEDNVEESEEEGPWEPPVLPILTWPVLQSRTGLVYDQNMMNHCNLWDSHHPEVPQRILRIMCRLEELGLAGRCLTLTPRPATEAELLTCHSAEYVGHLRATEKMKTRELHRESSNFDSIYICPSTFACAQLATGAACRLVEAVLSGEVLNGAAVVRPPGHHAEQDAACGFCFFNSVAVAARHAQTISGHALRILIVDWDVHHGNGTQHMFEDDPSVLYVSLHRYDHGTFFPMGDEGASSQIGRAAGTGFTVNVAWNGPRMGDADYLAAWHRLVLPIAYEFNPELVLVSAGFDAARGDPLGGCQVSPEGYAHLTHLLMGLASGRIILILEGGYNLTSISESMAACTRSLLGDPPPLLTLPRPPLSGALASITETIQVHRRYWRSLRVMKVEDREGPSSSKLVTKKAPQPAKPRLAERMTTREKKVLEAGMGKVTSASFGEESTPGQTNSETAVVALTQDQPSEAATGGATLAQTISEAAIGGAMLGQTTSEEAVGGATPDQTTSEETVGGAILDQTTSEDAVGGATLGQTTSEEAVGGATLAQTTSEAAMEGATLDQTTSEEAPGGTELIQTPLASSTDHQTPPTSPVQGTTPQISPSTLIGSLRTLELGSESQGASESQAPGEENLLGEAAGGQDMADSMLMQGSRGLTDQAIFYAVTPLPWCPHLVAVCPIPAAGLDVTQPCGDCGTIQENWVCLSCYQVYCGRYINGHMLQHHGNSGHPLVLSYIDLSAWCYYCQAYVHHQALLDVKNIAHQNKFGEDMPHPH

For the compound `Nc1ncc2cc(-c3nnn(Cc4cc(F)c(-c5nnc(C(F)F)o5)cc4F)n3)ccc2n1` [compound 423, 6-(2-(4-(5-(difluoromethyl)-1,3,4-oxadiazol-2-yl)-2,5-difluorobenzyl)-2H-tetrazol-5-yl)quinazolin-2-amine], the results for the half-inhibitory concentration (IC50) at recombinant human HDAC6 and at recombinant human HDAC1 were 99 nM and 1e+06 nM, respectively.
For `CNc1ccc2cc(-c3nnn(Cc4ccc(-c5nnc(C(F)F)o5)c(F)c4)n3)ccc2n1` [compound 403, 6-[2-[[4-[5-(difluoromethyl)-1,3,4-oxadiazol-2-yl]-3-fluorophenyl]methyl]tetrazol-5-yl]-N-methylquinolin-2-amine], in that order: 117 nM and 1e+06 nM.
For `O=C(NCC1CC1)C1CCCN(C(=O)c2ccc(-c3cn(Cc4c(F)cc(-c5nnc(C(F)F)o5)cc4F)nn3)cc2)C1` (stereo not shown) [compound 239, N-(cyclopropylmethyl)-1-(4-(1-(4-(5-(difluoromethyl)-1,3,4-oxadiazol-2-yl)-2,6-difluorobenzyl)-1H-1,2,3-triazol-4-yl)benzoyl)piperidine-3-carboxamide], in that order: 215 nM and > 200000 nM.
For `FC(F)c1nnc(-c2ccc(Cn3nnc(-c4cccc(-c5ccccc5)c4)n3)cc2)o1` [compound 246, 2-(4-((5-([1,1′-biphenyl]-3-yl)-2H-tetrazol-2-yl)methyl)phenyl)-5-(difluoromethyl)-1,3,4-oxadiazole], in that order: 266 nM and > 200000 nM.
In the case of `Nc1nc2ccc(-c3cn(Cc4cc(F)c(-c5nnc(C(F)F)o5)cc4F)nn3)cc2s1` [compound 343, 6-[1-[[4-[5-(difluoromethyl)-1,3,4-oxadiazol-2-yl]-2,5-difluorophenyl]methyl]triazol-4-yl]-1,3-benzothiazol-2-amine], the IC50 at recombinant human HDAC6 was 31 nM; at recombinant human HDAC1, > 1e+06 nM.
For `O=C(c1cccc(-c2nnn(Cc3c(F)cc(-c4nnc(C(F)F)o4)cc3F)n2)c1)N1CCOCC1` [compound 112, (3-(2-(4-(5-(difluoromethyl)-1,3,4-oxadiazol-2-yl)-2,6-difluorobenzyl)-2H-tetrazol-5-yl)phenyl)(morpholino)methanone], in that order: 42 nM and > 200000 nM.
For `O=C(Nc1cccc(-c2cn(Cc3ccc(-c4nnc(C(F)F)o4)cc3F)nn2)c1)N1CCOCC1` [compound 47, N-(3-(1-(4-(5-(difluoromethyl)-1,3,4-oxadiazol-2-yl)-2-fluorobenzyl)-1H-1,2,3-triazol-4-yl)phenyl)morpholine-4-carboxamide], in that order: 21 nM and > 30000 nM.
On the same counts, the results for `Cn1c(N)nc2cc(-c3nnn(Cc4ccc(-c5nnc(C(F)F)o5)c(F)c4F)n3)ccc21` [compound 371, 5-[2-[[4-[5-(difluoromethyl)-1,3,4-oxadiazol-2-yl]-2,3-difluorophenyl]methyl]tetrazol-5-yl]-1-methylbenzimidazol-2-amine] are 25 nM and > 1e+06 nM.
On to `FC(F)c1nnc(-c2ccc(Cn3nnc(-c4cccc(-n5cccn5)c4)n3)cc2)o1` [compound 188, 2-(4-((5-(3-(1H-pyrazol-1-yl)phenyl)-2H-tetrazol-2-yl)methyl)phenyl)-5-(difluoromethyl)-1,3,4-oxadiazole], for which the IC50 on recombinant human HDAC6 is 99 nM; at recombinant human HDAC1 it was > 200000 nM.
Take `O=C(Nc1cc(-c2nnn(Cc3c(F)cc(-c4nnc(C(F)F)o4)cc3F)n2)ccc1O)N1CCOCC1` [compound 95, N-(5-(2-(4-(5-(difluoromethyl)-1,3,4-oxadiazol-2-yl)-2,6-difluorobenzyl)-2H-tetrazol-5-yl)-2-hydroxyphenyl)morpholine-4-carboxamide]: the figures for the half-maximal inhibitory concentration (IC50) on recombinant human HDAC6 and on recombinant human HDAC1 were 37 nM and > 200000 nM, respectively.
For `NC(=O)c1cc(-c2nnn(Cc3ccc(-c4nnc(C(F)F)o4)cc3)n2)ccc1N` [compound 72, 2-amino-5-(2-(4-(5-(difluoromethyl)-1,3,4-oxadiazol-2-yl)benzyl)-2H-tetrazol-5-yl)benzamide], in that order: 30 nM and > 200000 nM.
On the same counts, the results for `CN(Cc1ccc(-c2nc(Cc3c(F)cc(-c4nnc(C(F)F)o4)cc3F)no2)cc1)C(=O)C(F)F` [compound 206, N-(4-(3-(4-(5-(difluoromethyl)-1,3,4-oxadiazol-2-yl)-2,6-difluorobenzyl)-1,2,4-oxadiazol-5-yl)benzyl)-2,2-difluoro-N-methylacetamide] are 127 nM and > 200000 nM.
With `O=C(Nc1cccc(-c2cn(Cc3ccc(-c4nnc(C(F)F)o4)cc3Cl)nn2)c1)N1CCOCC1` [compound 337, N-[3-[1-[[2-chloro-4-[5-(difluoromethyl)-1,3,4-oxadiazol-2-yl]phenyl]methyl]triazol-4-yl]phenyl]morpholine-4-carboxamide], the half-maximal inhibitory concentration (IC50) at recombinant human HDAC6 was 45 nM; at recombinant human HDAC1, > 1e+06 nM.
For `O=C1CCc2ccc(-c3nnn(Cc4ccc(-c5nnc(C(F)F)o5)cc4)n3)cc21` [compound 203, 6-(2-(4-(5-(difluoromethyl)-1,3,4-oxadiazol-2-yl)benzyl)-2H-tetrazol-5-yl)-2,3-dihydro-1H-inden-1-one], in that order: 118 nM and > 200000 nM.
On the same counts, the results for `NC(=O)c1cccc(-c2nnn(Cc3c(F)cc(-c4nnc(C(F)F)o4)cc3F)n2)c1` [compound 54, 3-(2-(4-(5-(difluoromethyl)-1,3,4-oxadiazol-2-yl)-2,6-difluorobenzyl)-2H-tetrazol-5-yl)benzamide] are 23 nM and > 200000 nM.
`NCc1ccc(-c2cn(Cc3ccc(-c4nnc(C(F)F)o4)cc3)nn2)cn1` [compound 155, (5-(1-(4-(5-(difluoromethyl)-1,3,4-oxadiazol-2-yl)benzyl)-1H-1,2,3-triazol-4-yl)pyridin-2-yl)methanamine]: the half-inhibitory concentration (IC50) on recombinant human HDAC6 was 69 nM; on recombinant human HDAC1, > 200000 nM.
On the same counts, the results for `CN(C)c1ccc(-c2cn(Cc3ccc(-c4nnc(C(F)F)o4)cc3)nn2)cc1` [compound 281, 4-(1-(4-(5-(difluoromethyl)-1,3,4-oxadiazol-2-yl)benzyl)-1H-1,2,3-triazol-4-yl)-N,N-dimethylaniline] are 200 nM and > 200000 nM.
For `O=C1Nc2cc(-c3nnn(Cc4ccc(-c5nnc(C(F)F)o5)cc4)n3)ccc2NC12CCCCC2` [compound 209, 6′-(2-(4-(5-(difluoromethyl)-1,3,4-oxadiazol-2-yl)benzyl)-2H-tetrazol-5-yl)-1′,4′-dihydro-3′H-spiro[cyclohexane-1,2′-quinoxalin]-3′-one], in that order: 133 nM and > 200000 nM.
On the same counts, the results for `O=C1CCc2c1cccc2-c1nnn(Cc2ccc(-c3nnc(C(F)F)o3)cc2)n1` [compound 208, 4-(2-(4-(5-(difluoromethyl)-1,3,4-oxadiazol-2-yl)benzyl)-2H-tetrazol-5-yl)-2,3-dihydro-1H-inden-1-one] are 132 nM and > 200000 nM.
As for `O=C(Nc1cccc(-c2nc(Cc3c(F)cc(-c4nnc(C(F)F)o4)cc3F)no2)c1)N1CCOCC1` [Compd. 145, N-(3-(3-(4-(5-(difluoromethyl)-1,3,4-oxadiazol-2-yl)-2,6-difluorobenzyl)-1,2,4-oxadiazol-5-yl)phenyl)morpholine-4-carboxamide], the half-maximal inhibitory concentration (IC50) on recombinant human HDAC6 was 61 nM; at recombinant human HDAC1, > 200000 nM.
